Laboratory results published in paper PMC6237300, “Influenza B viruses circulated during last 5 years in Mongolia” (PLoS ONE, 2018).

Molecular target: NA of influenza B clinical isolates (Influenza B virus, UniProt A0A1X9RX69)
Format: biochemical

Molecule `CCC(CC)[C@H](NC(C)=O)[C@@H]1[C@H](O)[C@@H](C(=O)O)C[C@H]1N=C(N)N` [Peramivir, peramivir] has an IC50 of 0.47 ± 0.4 nM.
